# Results: patent US20030059890A1, “DNA encoding the chimpanzee prostaglandin E2 receptor EP4 subtype” (Pfizer Inc., priority 2001, published 2003)
# Where two headings read alike, the source gives them in different places.
# What was measured:
# chimpanzee EP4 receptor [1] = target: T1, chimpanzee EP4 receptor (Pan troglodytes, UniProt Q95KZ0); assay: Competition binding of 3H-PGE2 on CHO-K1 cells transiently transfected with chimpanzee EP4
# Protocol: Competitive binding of various prostanoid ligands for EP1-EP4 with ^3H-PGE2 on CHO cells transiently transfected with chimpanzee EP4. Each indicated concentration of (▪) PGE2, (●) sulprostone, (▴) butaprost, or (♦) EP4SL was incubated with three wells of a 24-well dish of CHO cells transiently transfected with chimpanzee EP4 for 1 hr on ice in the presence of 3 nM 3H-PGE2. Following washing and solubilization of the cells, specific binding was determined by scintillation counting. Error bars represent one standard deviation.
# The day prior to transfection, CHO-K1 cells were plated in 100 mm dishes (Corning, Corning, N.Y.) at 6×10^4 cells/cm^2 in DMEM/F12 (Life Technologies) supplemented with 10% fetal calf serum (FCS; Gemini Bio-Products, Calabasas, Calif.). The next day, each plate of cells was transfected with 15 g chimpanzee EP4-pCR3.1-Uni plasmid DNA using Lipofectamine 2000 reagent (Life Technologies) according to the manufacturer's protocol. Briefly, 451 of Lipofectamine 2000 reagent was diluted into 1.5 ml of D-MEM/F12 without serum and incubated at room temperature for 5 minutes. During this time, 15g chimpanzee EP4-pCR3.1-Uni plasmid DNA was diluted into 0.5 ml of D-MEM/F12 without serum. The diluted Lipofectamine 2000 reagent and the DNA were then mixed and incubated an additional 20 minutes at room temperature. 8 ml D-MEM/F12 without serum was then added to each reaction and carefully added to a plate of CHO cell previously rinsed with serum free D-M EM/F12. These cells were then incubated at 37° C. with 5% CO2 for 6 hr at which time 1 ml FCS was added per plate and the incubation continued at 37° C. with 5% CO2 overnight. The following day, the cells were split to either 24-well or 96-well dishes for use in ligand binding and/or secondary signaling analyses.
# Whole cell binding reactions (0.2 ml per well) containing 3 nM ^3H-PGE2 plus unlabeled competitor (10^−5 to 10^−10 M) were performed on ice for 1 hr. Unbound radioligand was removed by extensive washing, the cells were solubilized with 1% SDS, and the bound ^3H-PGE2 quantitated by scintillation counting.
# chimpanzee EP4 receptor [2] = target: T1, chimpanzee EP4 receptor; assay: cAMP accumulation (SPA) in CHO cells transiently transfected with chimpanzee EP4; format: cell-based; conditions: 12 minutes treatment, IBMX present, SPA kit
# Protocol: Error bars represent one standard deviation.
# Secondary signaling in CHO cells expressing chimpanzee EP4 was measured by cAMP accumulation. CHO cells transiently transfected with chimpanzee EP4 were treated for 12 minutes with various concentrations of PGE2 in the presence of 2 mM IBMX. Accumulation of intracellular cAMP was measured at the end of the treatment period by use of a commercially available scintillation proximity assay (SPA) kit (Amersham, Arlington Heights, Ill.).
# (§1) Cells were then rinsed once with PBS and the appropriate concentrations of test compounds (diluted in assay buffer: 5 mM MgCl2; 30 mM Hepes pH 7.4; 0.3 mM 3-isobutyl-1-methylxanthine, (IBMX; Calbiochem, La Jolla, Calif.); 1 mg/ml dextrose) were added. The plate was incubated at 37° C. for 12 minutes, after which 10 μl lysis buffer was added to each well to terminate the reaction. SPA reagent (RPA559, Amersham, Piscataway, N.J.) was prepared according to the manufacturer's protocol and 120 μl was added to each well. Assay plates were then counted in a Wallac Trilux counter (Perkin Elmer, Boston, Mass.).
# parental CHO-K1 cells = assay: cAMP levels in parental (untransfected) CHO-K1 cells; format: cell-based, Chinese hamster; conditions: parental CHO-K1 cells (not transfected)
# Protocol: The protein-coding region of chimpanzee EP4 was contained in open reading frame of 1470 bp and encodes a protein of 490 amino acids with a predicted molecular weight of 53.4 kD.
# as §1
# T1 sequence (Q95KZ0 whole entry): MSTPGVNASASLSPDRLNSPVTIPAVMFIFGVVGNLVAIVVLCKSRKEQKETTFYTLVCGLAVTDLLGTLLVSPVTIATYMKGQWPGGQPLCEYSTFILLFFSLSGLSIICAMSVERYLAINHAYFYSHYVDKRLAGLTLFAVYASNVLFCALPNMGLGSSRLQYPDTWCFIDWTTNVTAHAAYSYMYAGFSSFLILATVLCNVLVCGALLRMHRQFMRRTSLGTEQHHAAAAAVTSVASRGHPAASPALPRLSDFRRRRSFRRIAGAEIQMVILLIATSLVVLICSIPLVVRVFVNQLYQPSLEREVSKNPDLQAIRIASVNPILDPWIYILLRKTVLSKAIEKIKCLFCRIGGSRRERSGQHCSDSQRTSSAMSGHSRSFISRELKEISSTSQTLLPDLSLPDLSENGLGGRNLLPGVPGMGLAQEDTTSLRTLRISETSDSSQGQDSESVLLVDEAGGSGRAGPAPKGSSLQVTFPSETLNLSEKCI
Structure (SMILES),IC50 (chimpanzee EP4 receptor [1]),EC50 (chimpanzee EP4 receptor [2]),increased levels of cAMP (parental CHO-K1 cells),"IC50 (chimpanzee EP4 receptor [1]; read-out: IC50 for displacement of 3H-PGE2 binding, whole CHO-K1 cells transiently transfected with chimpanzee EP4, 3 nM 3H-PGE2, 1 hr on ice)","binding to the chimpanzee EP4 receptor (competition with 3H-PGE2) (chimpanzee EP4 receptor [1]; CHO-K1 cells transiently transfected with chimpanzee EP4, competitor 10^-5 to 10^-10 M)"
"O=C(O)CCCCCCN1C(=O)CCC1CCC(O)Cc1ccccc1 (stereo not shown) [EP4SL, 7-[2-(3-hydroxy-4-phenyl-butyl)-5-oxo-pyrrolidin-1-yl]-heptanoic acid]",300 nM,560 nM,not in parental CHO-K1 cells,,
"CCCCC[C@H](O)/C=C/[C@H]1[C@H](O)CC(=O)[C@@H]1C/C=C\CCCC(=O)O [PGE2, Prostaglandin E2]",,8.9 nM,not in parental CHO-K1 cells,2.5 nM,
CCCC1([C@H](O)C/C=C/[C@H]2[C@H](O)CC(=O)[C@@H]2CCCCCCC(=O)OC)CCC1 [butaprost],,,,,did not bind
